# Laboratory results published in PubChem BioAssay AID2060884 (Molecular Pharmacology Branch, DTP, NCI, 2025).
# System: NCI-H929 complex spheroids, viability % test/control
# Experiment: Anticancer human tumor NCI-H929 cell line growth inhibition [RAS];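 also: compound exposure lasted seven days before viability was read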
# Conditions: for IC50: curve of first compound; for viability, T/C: stronger effect = lower value
# From the text: RAS pathway inhibitors in Combinations in Complex Spheroids
# A high-throughput screen of multi-cell type tumor spheroids was designed to identify active combinations of RAS pathway inhibitors and targeted small molecules. Complex spheroids include a stromal component modeled by human endothelial cells (HUVEC) and fibroblasts modeled by human mesenchymal stem cells (MSCs). The concentration ranges selected for each drug and investigational agent were based upon clinically achievable concentrations if the clinical Cmax of the agent was known.
# Compounds. The drugs and investigational agents: abemaciclib (NSC768073), cobimetinib (NSC768068), divarasib (GDC6063, NSC841802), docetaxel (NSC628503), GDC-1971 (RLY-1971, NSC841576), gemcitabine (NSC613327), inavolisib (NSC800729), ipatasertib (NSC767898), KB-0742 (NSC834161), MRTX-1133 (NSC836407), osimertinib (NSC779217), RMC-4630 (NSC839698), RMC-6236 (NSC851965), RMC-6291 (NSC852671), Ro-3306 (NSC812927), sapanisertib (NSC764658), SN-38 (NSC673596), staurosporine (NSC755774), SY5609 (NSC837396), and tovorafenib (DAY101, NSC766906), were obtained from the National Cancer Institute (NCI) Developmental Therapeutics Program Chemical Repository. The FDA-approved anticancer drug set is available from the NCI Developmental Therapeutics Program. […] The stock solutions were prepared in dimethyl sulfoxide (DMSO, Sigma-Aldrich, St. Louis, MO, cat. D2650) at 800-fold the tested concentration and stored at -70 degrees C prior to their use. All drugs and investigational agents were tested over a range starting from a high concentration at or near the clinical Cmax and decreasing in half-log increments. If the clinical Cmax for an agent had not been determined, the highest concentration tested was 10 microM.
# Cell Culture. All cells were maintained in an incubator at 37 degrees C and 5% CO2 with 95% humidity. The PDC lines were cultured according to standard operating procedures established by the NCI PDMR. All PDCs were thawed and cultured in Matrigel-coated flasks prepared with a working solution of 1X Ham's F-12 nutrient mix, without supplementation (Invitrogen, Waltham, MA, cat. 11765054), 100 U/mL penicillin-streptomycin (Invitrogen, cat. 15140122), and 2.5% Matrigel (Corning Inc., Corning, NY, cat. 354248) for the first three passages. The 362531-283-R-J2-PDC and 782815-120-R-J1-PDC lines were cultured in 6C/Colon 1B media, which includes advanced DMEM/F-12 (Thermo Fisher Scientific, cat. 12634028), 10 mM HEPES (Thermo Fisher Scientific, cat. 15630080), 1X GlutaMAX supplement (Thermo Fisher Scientific, cat. 35050061), 0.1 mg/mL primocin (InvivoGen, San Diego, CA, cat. ant-pm-2), 10% defined fetal bovine serum, heat inactivated (HyClone Laboratories Inc., Logan, UT, cat. SH30070.03HI), 50% L-WRN conditioned media (ATCC, cat. CRL-3276), 1.25 mM N-Acetyl-L-cysteine (Sigma-Aldrich, cat. A9165), 10 mM nicotinamide (Sigma-Aldrich, cat. N0636), 1X B-27 supplement (Thermo Fisher Scientific, cat. 17504044), 1X N-2 supplement (Thermo Fisher Scientific, cat. 17502048), 50 ng/mL human EGF (Thermo Fisher Scientific, cat. PHG0311), and 10 microM Y-27632 dihydrochloride (Tocris Bioscience, cat. 1254). The K12877-001-R-J1-PDC line was cultured in 6I media, which includes all 6C/Colon 1B media plus 10 ng/mL human FGF-10 (PeproTech, cat. 100-26), 1 ng/mL human FGF-2 (PeproTech, cat. 100-18B), 1 µM prostaglandin E2 (Tocris Bioscience, cat. 2296), […] hydrocortisone (Sigma-Aldrich, cat. H4001), and […] bovine insulin (Sigma-Aldrich, cat. I6634). The K86415-001-R-J1-PDC line was cultured in 6D media, which includes all 6C/Colon 1B media components minus the L-WRN conditioned media. The 485176-168-R4-J1-PDC was cultured in PANC media, which includes all 6C/Colon 1B media plus 100 ng/mL human FGF-10 (PeproTech, cat. 100-26), 500 nM SB-431542 (Selleckchem, cat. S1067), and 10 nM gastrin (Tocris Bioscience, cat. 3006). […]
smiles,measurement,setting,value
Nc1ccn(C2OC(CO)C(O)C2(F)F)c(=O)n1 (centres undefined) + C#Cc1c(F)ccc2cc(O)cc(-c3ncc4c(N5CC6CCC(C5)N6)nc(OCC56CCCN5CC(F)C6)nc4c3F)c12,IC50,second compound 0.0316 µM,18.2 nM
same,IC50,second compound 0.1 µM,18.5 nM
same,IC50,second compound 0.316 µM,18.5 nM
same,IC50,second compound 1 µM,18.1 nM
same,IC50,second compound 3.16 µM,18.5 nM
same,IC50,second compound 10 µM,17.8 nM
same,"viability, T/C","second compound 0.0316 µM, first compound 0.00316 µM",97.9%
same,"viability, T/C","second compound 0.0316 µM, first compound 0.01 µM",106%
same,"viability, T/C","second compound 0.0316 µM, first compound 0.0316 µM",1.73%
same,"viability, T/C","second compound 0.0316 µM, first compound 0.1 µM",1.71%
same,"viability, T/C","second compound 0.0316 µM, first compound 0.316 µM",1.77%
same,"viability, T/C","second compound 0.0316 µM, first compound 1 µM",0.97%
same,"viability, T/C","second compound 0.1 µM, first compound 0.00316 µM",99.5%
same,"viability, T/C","second compound 0.1 µM, first compound 0.01 µM",111%
same,"viability, T/C","second compound 0.1 µM, first compound 0.0316 µM",2.14%
same,"viability, T/C","second compound 0.1 µM, first compound 0.1 µM",1.9%
same,"viability, T/C","second compound 0.1 µM, first compound 0.316 µM",0.95%
same,"viability, T/C","second compound 0.1 µM, first compound 1 µM",1.51%
same,"viability, T/C","second compound 0.316 µM, first compound 0.00316 µM",102%
same,"viability, T/C","second compound 0.316 µM, first compound 0.01 µM",106%
same,"viability, T/C","second compound 0.316 µM, first compound 0.0316 µM",2.97%
same,"viability, T/C","second compound 0.316 µM, first compound 0.1 µM",2.03%
same,"viability, T/C","second compound 0.316 µM, first compound 0.316 µM",1.39%
same,"viability, T/C","second compound 0.316 µM, first compound 1 µM",1.19%
same,"viability, T/C","second compound 1 µM, first compound 0.00316 µM",97.4%
same,"viability, T/C","second compound 1 µM, first compound 0.01 µM",105%
same,"viability, T/C","second compound 1 µM, first compound 0.0316 µM",1.48%
same,"viability, T/C","second compound 1 µM, first compound 0.1 µM",1.24%
same,"viability, T/C","second compound 1 µM, first compound 0.316 µM",0.95%
same,"viability, T/C","second compound 1 µM, first compound 1 µM",0.85%
same,"viability, T/C","second compound 3.16 µM, first compound 0.00316 µM",97.4%
same,"viability, T/C","second compound 3.16 µM, first compound 0.01 µM",108%
same,"viability, T/C","second compound 3.16 µM, first compound 0.0316 µM",3.7%
same,"viability, T/C","second compound 3.16 µM, first compound 0.1 µM",1.57%
same,"viability, T/C","second compound 3.16 µM, first compound 0.316 µM",1.67%
same,"viability, T/C","second compound 3.16 µM, first compound 1 µM",1.18%
same,"viability, T/C","second compound 10 µM, first compound 0.00316 µM",102%
same,"viability, T/C","second compound 10 µM, first compound 0.01 µM",97.2%
same,"viability, T/C","second compound 10 µM, first compound 0.0316 µM",2.56%
same,"viability, T/C","second compound 10 µM, first compound 0.1 µM",1.28%
same,"viability, T/C","second compound 10 µM, first compound 0.316 µM",1.24%
same,"viability, T/C","second compound 10 µM, first compound 1 µM",0.87%
CC(Nc1ccc2c(c1)OCCn1cc(N3C(=O)OCC3C(F)F)nc1-2)C(N)=O (centres undefined) + CCn1c(-c2cccnc2C(C)OC)c2c3cc(ccc31)N1CCOC(CC(NC(=O)C(C(C)C)N(C)C(=O)C3(F)CCN(C(=O)C#CC(C)(C)N(C)C)CC3)C(=O)N3CCCC(N3)C(=O)OCC(C)(C)C2)C1,IC50,second compound 0.000949 µM,6450 nM
same,IC50,second compound 0.003 µM,6540 nM
same,IC50,second compound 0.00949 µM,5960 nM
same,IC50,second compound 0.03 µM,5960 nM
same,IC50,second compound 0.0949 µM,5440 nM
same,IC50,second compound 0.3 µM,4400 nM
same,"viability, T/C","second compound 0.000949 µM, first compound 0.0316 µM",103%
same,"viability, T/C","second compound 0.000949 µM, first compound 0.1 µM",94.3%
same,"viability, T/C","second compound 0.000949 µM, first compound 0.316 µM",96.2%
same,"viability, T/C","second compound 0.000949 µM, first compound 1 µM",87.2%
same,"viability, T/C","second compound 0.000949 µM, first compound 3.16 µM",83.5%
same,"viability, T/C","second compound 0.000949 µM, first compound 10 µM",30.4%
same,"viability, T/C","second compound 0.003 µM, first compound 0.0316 µM",99.5%
same,"viability, T/C","second compound 0.003 µM, first compound 0.1 µM",96.1%
same,"viability, T/C","second compound 0.003 µM, first compound 0.316 µM",94.5%
same,"viability, T/C","second compound 0.003 µM, first compound 1 µM",90.5%
same,"viability, T/C","second compound 0.003 µM, first compound 3.16 µM",79.8%
same,"viability, T/C","second compound 0.003 µM, first compound 10 µM",32.7%
same,"viability, T/C","second compound 0.00949 µM, first compound 0.0316 µM",98.7%
same,"viability, T/C","second compound 0.00949 µM, first compound 0.1 µM",97.1%
same,"viability, T/C","second compound 0.00949 µM, first compound 0.316 µM",96.5%
same,"viability, T/C","second compound 0.00949 µM, first compound 1 µM",92%
same,"viability, T/C","second compound 0.00949 µM, first compound 3.16 µM",85.3%
same,"viability, T/C","second compound 0.00949 µM, first compound 10 µM",21.6%
same,"viability, T/C","second compound 0.03 µM, first compound 0.0316 µM",94.1%
same,"viability, T/C","second compound 0.03 µM, first compound 0.1 µM",96.6%
same,"viability, T/C","second compound 0.03 µM, first compound 0.316 µM",96.5%
same,"viability, T/C","second compound 0.03 µM, first compound 1 µM",91.8%
same,"viability, T/C","second compound 0.03 µM, first compound 3.16 µM",83.1%
same,"viability, T/C","second compound 0.03 µM, first compound 10 µM",22.9%
same,"viability, T/C","second compound 0.0949 µM, first compound 0.0316 µM",96.9%
same,"viability, T/C","second compound 0.0949 µM, first compound 0.1 µM",98.1%
same,"viability, T/C","second compound 0.0949 µM, first compound 0.316 µM",94.5%
same,"viability, T/C","second compound 0.0949 µM, first compound 1 µM",91.1%
same,"viability, T/C","second compound 0.0949 µM, first compound 3.16 µM",80.2%
same,"viability, T/C","second compound 0.0949 µM, first compound 10 µM",17%
same,"viability, T/C","second compound 0.3 µM, first compound 0.0316 µM",101%
same,"viability, T/C","second compound 0.3 µM, first compound 0.1 µM",101%
same,"viability, T/C","second compound 0.3 µM, first compound 0.316 µM",97.2%
same,"viability, T/C","second compound 0.3 µM, first compound 1 µM",86%
same,"viability, T/C","second compound 0.3 µM, first compound 3.16 µM",65.6%
same,"viability, T/C","second compound 0.3 µM, first compound 10 µM",13.2%
